Measurements taken from ChEMBL document CHEMBL1201862, “PubChem BioAssay data set” (2004).
Active and inactive are the calls of the source.

Tests used:
[1] = Luminescence Cell-Based Dose Confirmation HTS to Identify Inhibitors of Platelet Dense Granule Release. [Related pubchem assays: 1663 (Primary HTS), 1678 (Summary of Project)]; type: functional
[2] = target: T1, Carboxy-terminal domain RNA polymerase II polypeptide A small phosphatase 1 (Homo sapiens, UniProt Q9GZU7); experiment: inhibitors of CTDSP1, concentration-response testing, biochemical assay, absorbance-based, actives from ultra-high-throughput screening (AID 540297); type: functional
T1 sequence (Q9GZU7 whole entry): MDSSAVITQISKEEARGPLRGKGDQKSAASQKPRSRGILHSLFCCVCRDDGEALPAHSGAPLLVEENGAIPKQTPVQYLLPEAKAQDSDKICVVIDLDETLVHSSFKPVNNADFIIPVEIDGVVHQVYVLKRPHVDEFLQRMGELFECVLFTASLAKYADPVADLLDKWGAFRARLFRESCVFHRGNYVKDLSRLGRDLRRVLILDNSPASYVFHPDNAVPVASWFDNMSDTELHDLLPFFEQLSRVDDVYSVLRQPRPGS

Estrogen receptor beta [3] = target: T2, Estrogen receptor beta (Homo sapiens, UniProt Q92731);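 note: recombinant ER-beta bound to coactivator SRC1 peptide in presence of estradiol agonist; inhibitors block coactivator peptide binding and lower the FRET signal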
Estrogen receptor beta [4] = target: T2, Estrogen receptor beta; experiment: ERβ–SRC-3 coactivator interaction inhibitors, confirmation, orthogonal assay, biochemical, ELISA, streptavidin-HRP readout (AID 1060)
[5] = target: Luciferin 4-monooxygenase (Photinus pyralis, UniProt P08659); experiment: firefly luciferase enzyme inhibitors, dose response, biochemical, luminescence (AID 1891)
Estrogen receptor = target: T3, Estrogen receptor (Homo sapiens, UniProt P03372);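 note: potency for inhibiting coactivator peptide recruitment to the receptor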
T3 sequence (P03372 whole entry): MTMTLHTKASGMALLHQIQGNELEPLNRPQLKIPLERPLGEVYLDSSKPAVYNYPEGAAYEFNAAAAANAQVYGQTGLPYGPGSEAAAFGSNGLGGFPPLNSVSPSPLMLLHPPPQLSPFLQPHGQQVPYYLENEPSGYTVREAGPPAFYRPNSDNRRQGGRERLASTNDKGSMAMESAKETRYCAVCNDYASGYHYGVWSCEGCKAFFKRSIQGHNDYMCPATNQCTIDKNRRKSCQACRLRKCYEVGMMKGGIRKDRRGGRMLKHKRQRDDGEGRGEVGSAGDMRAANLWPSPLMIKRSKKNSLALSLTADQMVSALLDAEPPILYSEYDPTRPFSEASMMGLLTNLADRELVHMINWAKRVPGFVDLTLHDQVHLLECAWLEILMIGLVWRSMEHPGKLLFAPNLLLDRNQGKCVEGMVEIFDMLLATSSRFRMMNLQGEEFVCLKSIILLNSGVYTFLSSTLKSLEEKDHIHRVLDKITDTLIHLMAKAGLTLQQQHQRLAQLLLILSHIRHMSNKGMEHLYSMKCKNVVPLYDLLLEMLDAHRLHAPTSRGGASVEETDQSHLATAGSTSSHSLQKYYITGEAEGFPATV

[6] = target: Ubiquitin carboxyl-terminal hydrolase BAP1 (Homo sapiens, UniProt Q92560); experiment: BAP1 deubiquitinase inhibitors, dose response, biochemical (AID 714); type: functional
[7] = target: T4, Zinc finger protein mex-5 (Caenorhabditis elegans, UniProt Q9XUB2); experiment: MEX-5/TCR-2 RNA interaction inhibitors, dose response, biochemical, C. elegans, fluorescence polarization (AID 1960)
T4 sequence (Q9XUB2 whole entry): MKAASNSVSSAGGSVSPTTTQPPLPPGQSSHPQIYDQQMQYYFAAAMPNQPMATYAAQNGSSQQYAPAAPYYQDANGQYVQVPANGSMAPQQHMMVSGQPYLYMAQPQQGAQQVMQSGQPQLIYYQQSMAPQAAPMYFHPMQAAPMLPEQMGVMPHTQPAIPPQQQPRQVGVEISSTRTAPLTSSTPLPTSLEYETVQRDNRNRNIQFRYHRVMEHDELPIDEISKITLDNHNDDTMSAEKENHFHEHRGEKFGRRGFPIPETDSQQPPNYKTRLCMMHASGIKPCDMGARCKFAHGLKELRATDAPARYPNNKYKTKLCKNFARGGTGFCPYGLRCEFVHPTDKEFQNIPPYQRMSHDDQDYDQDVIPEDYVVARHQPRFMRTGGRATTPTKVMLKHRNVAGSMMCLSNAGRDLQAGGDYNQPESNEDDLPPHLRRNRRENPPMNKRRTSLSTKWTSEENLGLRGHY

[8] = target: T5, RNA-binding protein pos-1 (Caenorhabditis elegans, UniProt G5EF15); experiment: inhibitors of POS-1/mex-3 RNA binding, dose response, biochemical, fluorescence polarization (AID 1964);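 note: purified POS-1 fused to maltose binding protein made in E. coli; potency of compounds blocking POS-1 binding to fluorescent RNA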
T5 sequence (G5EF15 whole entry): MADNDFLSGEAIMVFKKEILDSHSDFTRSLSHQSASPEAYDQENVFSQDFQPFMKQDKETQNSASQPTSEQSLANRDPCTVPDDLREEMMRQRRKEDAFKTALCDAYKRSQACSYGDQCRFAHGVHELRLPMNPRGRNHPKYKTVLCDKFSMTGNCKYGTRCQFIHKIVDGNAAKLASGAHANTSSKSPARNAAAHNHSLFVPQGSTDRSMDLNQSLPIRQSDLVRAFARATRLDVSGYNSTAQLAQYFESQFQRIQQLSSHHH

Protein skinhead-1 = target: T6, Protein skinhead-1 (Caenorhabditis elegans, UniProt P34707); type: functional
T6 sequence (P34707 whole entry): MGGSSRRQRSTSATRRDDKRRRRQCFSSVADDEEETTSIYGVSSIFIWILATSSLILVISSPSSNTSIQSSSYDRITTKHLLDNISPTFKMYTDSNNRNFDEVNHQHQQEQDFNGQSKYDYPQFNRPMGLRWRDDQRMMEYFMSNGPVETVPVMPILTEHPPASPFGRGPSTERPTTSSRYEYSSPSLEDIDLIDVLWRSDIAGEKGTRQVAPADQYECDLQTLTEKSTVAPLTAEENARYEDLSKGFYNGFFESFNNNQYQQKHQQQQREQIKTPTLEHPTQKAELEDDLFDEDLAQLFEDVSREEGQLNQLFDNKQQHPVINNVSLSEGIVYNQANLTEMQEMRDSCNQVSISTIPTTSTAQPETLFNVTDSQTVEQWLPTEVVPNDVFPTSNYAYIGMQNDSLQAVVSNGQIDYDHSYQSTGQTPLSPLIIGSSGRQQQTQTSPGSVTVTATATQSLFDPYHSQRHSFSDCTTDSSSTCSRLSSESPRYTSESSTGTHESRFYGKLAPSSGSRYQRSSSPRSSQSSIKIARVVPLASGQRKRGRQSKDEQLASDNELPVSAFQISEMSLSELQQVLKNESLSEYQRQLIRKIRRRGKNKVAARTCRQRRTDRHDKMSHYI

[9] = target: 5-hydroxytryptamine receptor 1A (Homo sapiens, UniProt P08908); type: functional
[10] = cytotoxicity toward DRD oncogenic fibroblasts, dose response, cell-based, non-viral oncogenic, luminescence (AID 1934); type: functional; conditions: Homo sapiens
BJ [11] = experiment: cells; type: functional, cell-based; conditions: Homo sapiens
Protein RecA = target: T7, Protein RecA (Mycobacterium tuberculosis, UniProt P9WHJ3); experiment: Fluorescence Cell-Free Homogeneous Dose Retest to Identify Inhibitors of RecA-Intein Splicing Activity. [Related pubchem assays (depositor defined):AID2097, AID2223, AID489010, AID492950]; type: functional
T7 sequence (P9WHJ3 whole entry): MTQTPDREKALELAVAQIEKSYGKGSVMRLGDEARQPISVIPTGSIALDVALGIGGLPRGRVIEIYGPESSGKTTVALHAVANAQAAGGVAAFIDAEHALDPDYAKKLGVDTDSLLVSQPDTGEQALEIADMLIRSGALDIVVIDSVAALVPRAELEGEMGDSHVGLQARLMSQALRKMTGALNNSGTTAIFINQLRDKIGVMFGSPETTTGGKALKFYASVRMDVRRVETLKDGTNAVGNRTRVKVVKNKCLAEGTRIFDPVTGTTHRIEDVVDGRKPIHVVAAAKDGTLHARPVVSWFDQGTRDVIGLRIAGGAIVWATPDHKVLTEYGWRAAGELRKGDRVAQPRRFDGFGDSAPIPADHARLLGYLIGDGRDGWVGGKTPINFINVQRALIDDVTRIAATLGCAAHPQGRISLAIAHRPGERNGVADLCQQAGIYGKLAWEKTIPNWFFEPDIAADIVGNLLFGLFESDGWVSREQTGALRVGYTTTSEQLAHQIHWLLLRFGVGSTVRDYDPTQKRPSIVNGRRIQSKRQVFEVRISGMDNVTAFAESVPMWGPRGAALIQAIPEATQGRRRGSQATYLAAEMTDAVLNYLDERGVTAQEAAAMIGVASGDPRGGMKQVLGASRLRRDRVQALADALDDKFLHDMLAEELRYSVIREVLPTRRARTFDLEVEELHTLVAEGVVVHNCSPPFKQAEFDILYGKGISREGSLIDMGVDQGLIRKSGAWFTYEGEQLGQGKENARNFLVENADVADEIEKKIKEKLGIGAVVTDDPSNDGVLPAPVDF

[12] = target: T8, Replicative DNA helicase DnaB (Mycobacterium tuberculosis, UniProt P9WMR3); experiment: DnaB intein splicing inhibitors, dose response, biochemical, cell-free fluorescence (AID 449749); type: functional
T8 sequence (P9WMR3 whole entry): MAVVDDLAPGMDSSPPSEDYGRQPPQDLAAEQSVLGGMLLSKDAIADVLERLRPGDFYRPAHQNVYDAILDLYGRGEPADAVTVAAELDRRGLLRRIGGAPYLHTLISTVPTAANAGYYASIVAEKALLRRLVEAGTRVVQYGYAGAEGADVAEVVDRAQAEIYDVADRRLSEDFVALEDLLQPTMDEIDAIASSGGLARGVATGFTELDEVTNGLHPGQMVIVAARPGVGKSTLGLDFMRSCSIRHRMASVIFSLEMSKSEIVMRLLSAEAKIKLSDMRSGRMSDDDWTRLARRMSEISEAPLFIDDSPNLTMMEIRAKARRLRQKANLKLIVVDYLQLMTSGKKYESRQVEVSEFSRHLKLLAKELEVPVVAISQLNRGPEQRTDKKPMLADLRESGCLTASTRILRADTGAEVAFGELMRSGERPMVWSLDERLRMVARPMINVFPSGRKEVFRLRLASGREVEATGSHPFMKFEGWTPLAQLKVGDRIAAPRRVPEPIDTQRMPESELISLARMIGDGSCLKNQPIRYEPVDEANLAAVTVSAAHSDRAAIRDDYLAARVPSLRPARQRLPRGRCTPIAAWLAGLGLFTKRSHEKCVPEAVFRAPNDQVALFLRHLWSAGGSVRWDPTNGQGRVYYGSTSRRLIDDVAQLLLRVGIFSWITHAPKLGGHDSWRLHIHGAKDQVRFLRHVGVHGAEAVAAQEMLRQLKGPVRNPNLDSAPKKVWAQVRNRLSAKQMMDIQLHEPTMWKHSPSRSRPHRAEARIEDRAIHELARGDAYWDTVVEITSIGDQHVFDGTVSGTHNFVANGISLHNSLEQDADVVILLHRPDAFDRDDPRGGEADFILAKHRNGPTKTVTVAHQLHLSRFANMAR

BJ [13] = experiment: cytotoxicity toward BJ-TERT fibroblasts, dose response, cell-based, RAS-independent, luminescence (AID 1933); type: functional; conditions: Homo sapiens
[14] = target: E3 ubiquitin-protein ligase Mdm2 (Homo sapiens, UniProt Q00987); experiment: enhancers of MDM2-luciferase reporter signal, concentration-effect titration, project on inhibitors of MDM2 ubiquitin ligase, cellular assay, luminescent readout, 384-well plate format (AID 1394); type: functional;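 note: MDM2 E3 inhibitors raise luminescence so EC50 is for signal enhancement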
[15] = target: T9, Tyrosine-protein phosphatase non-receptor type 7 (Homo sapiens, UniProt P35236); experiment: inhibitors of human HePTP phosphatase, […], biochemical, absorbance, leukemia target (AID 521); type: functional
T9 sequence (P35236 whole entry): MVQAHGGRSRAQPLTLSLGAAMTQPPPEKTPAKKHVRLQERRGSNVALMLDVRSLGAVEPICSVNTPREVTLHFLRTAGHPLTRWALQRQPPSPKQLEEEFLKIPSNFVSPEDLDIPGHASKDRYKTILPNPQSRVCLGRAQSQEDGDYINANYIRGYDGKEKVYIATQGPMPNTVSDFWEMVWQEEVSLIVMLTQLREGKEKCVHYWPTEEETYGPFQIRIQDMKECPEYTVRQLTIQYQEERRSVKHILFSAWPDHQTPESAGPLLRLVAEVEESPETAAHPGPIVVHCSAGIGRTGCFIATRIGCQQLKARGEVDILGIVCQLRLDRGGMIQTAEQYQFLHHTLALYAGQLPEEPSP

[16] = target: T10, Calpain-2 catalytic subunit (Sus scrofa, UniProt P43367); experiment: pig calpain II inhibitor potency, dose response, biochemical, fluorogenic peptide substrate (AID 1420); type: functional
T10 sequence (P43367 whole entry): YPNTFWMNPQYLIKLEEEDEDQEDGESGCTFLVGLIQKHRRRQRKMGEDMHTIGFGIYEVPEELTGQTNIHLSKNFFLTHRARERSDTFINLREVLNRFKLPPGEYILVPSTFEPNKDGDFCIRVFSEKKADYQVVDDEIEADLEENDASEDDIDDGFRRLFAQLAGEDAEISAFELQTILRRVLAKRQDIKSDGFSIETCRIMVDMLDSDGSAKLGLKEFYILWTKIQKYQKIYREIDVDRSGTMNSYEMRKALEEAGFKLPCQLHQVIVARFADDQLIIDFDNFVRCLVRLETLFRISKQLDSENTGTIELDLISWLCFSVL

T2 sequence (Q92731 whole entry): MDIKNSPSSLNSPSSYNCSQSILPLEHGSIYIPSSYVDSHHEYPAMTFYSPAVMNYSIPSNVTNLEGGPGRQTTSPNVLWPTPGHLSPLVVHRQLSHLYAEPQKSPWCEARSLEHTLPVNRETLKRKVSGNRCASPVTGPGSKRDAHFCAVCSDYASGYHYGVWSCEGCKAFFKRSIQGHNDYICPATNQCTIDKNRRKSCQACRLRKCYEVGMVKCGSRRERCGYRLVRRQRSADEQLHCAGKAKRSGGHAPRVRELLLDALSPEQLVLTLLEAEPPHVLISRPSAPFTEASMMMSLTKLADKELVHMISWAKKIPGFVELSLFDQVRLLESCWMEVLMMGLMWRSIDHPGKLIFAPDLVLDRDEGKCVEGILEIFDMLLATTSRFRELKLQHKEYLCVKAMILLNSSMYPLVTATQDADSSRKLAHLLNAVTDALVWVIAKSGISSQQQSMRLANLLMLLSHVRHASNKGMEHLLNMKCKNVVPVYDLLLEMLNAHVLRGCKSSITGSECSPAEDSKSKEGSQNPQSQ
Ubiquitin carboxyl-terminal hydrolase BAP1, sequence (Q92560 whole entry): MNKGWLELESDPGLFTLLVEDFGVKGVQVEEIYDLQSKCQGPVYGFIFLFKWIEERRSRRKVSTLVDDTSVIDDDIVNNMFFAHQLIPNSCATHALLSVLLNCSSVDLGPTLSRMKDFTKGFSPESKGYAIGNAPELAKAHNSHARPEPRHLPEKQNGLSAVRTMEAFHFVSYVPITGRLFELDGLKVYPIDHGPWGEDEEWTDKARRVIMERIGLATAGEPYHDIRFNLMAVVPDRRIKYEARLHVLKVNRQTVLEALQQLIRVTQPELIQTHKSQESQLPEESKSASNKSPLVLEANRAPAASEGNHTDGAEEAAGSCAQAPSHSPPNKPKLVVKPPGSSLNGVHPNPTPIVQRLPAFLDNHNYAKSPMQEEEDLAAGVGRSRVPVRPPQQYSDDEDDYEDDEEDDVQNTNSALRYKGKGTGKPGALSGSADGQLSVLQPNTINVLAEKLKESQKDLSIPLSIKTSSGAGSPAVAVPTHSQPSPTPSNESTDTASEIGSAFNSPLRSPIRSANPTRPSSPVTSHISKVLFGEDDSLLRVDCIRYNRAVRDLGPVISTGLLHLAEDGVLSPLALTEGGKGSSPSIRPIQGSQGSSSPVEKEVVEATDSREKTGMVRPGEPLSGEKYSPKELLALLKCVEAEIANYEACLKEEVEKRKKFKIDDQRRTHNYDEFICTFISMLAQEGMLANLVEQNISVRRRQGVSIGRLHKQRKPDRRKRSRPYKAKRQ
Luciferin 4-monooxygenase, sequence (P08659 whole entry): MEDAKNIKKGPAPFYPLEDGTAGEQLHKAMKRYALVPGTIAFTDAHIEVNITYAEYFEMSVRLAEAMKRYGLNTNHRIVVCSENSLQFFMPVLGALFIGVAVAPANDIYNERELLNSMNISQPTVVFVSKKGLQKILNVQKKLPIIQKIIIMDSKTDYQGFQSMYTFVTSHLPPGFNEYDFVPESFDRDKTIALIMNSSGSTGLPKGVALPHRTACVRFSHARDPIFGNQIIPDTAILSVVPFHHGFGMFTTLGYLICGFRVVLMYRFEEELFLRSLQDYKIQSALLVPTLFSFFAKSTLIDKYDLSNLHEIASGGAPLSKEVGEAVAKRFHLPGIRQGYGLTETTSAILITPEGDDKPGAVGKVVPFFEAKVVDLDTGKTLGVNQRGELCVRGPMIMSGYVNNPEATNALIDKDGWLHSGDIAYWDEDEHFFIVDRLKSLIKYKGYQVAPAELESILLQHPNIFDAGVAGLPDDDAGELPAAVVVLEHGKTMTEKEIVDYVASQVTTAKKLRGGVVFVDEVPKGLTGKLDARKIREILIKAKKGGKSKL
5-hydroxytryptamine receptor 1A, sequence (P08908 whole entry): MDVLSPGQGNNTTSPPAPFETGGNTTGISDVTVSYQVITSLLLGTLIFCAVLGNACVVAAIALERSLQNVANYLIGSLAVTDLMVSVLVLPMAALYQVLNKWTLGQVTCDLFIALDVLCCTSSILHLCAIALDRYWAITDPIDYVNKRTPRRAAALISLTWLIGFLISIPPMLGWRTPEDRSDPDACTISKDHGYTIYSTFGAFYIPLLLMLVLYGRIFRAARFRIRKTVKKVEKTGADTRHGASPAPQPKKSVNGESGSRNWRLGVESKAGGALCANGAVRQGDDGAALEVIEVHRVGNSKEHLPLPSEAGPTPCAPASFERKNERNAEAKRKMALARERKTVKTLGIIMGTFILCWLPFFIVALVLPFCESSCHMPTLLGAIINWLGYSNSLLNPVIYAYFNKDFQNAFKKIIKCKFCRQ
E3 ubiquitin-protein ligase Mdm2, sequence (Q00987 whole entry): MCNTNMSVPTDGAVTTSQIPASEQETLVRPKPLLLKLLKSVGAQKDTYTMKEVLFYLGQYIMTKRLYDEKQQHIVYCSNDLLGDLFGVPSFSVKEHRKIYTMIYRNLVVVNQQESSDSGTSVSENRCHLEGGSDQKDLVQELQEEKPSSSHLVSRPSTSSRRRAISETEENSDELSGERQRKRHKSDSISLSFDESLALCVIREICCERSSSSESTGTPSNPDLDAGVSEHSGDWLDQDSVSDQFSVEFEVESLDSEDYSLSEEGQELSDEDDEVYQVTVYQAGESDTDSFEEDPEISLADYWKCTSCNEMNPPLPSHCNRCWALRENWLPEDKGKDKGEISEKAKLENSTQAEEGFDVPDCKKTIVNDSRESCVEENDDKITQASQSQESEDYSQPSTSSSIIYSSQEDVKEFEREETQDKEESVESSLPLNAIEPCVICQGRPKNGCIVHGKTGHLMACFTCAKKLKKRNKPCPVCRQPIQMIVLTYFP

Cc1ccc(-c2cc(C(=O)NCc3ccco3)c3ccccc3n2)o1
EC50 [1]: > 112 µM (not active) | IC50 [2]: 4.39 µM (active) | IC50 (Estrogen receptor beta [3]): 3.37 µM (active) | IC50 (Estrogen receptor beta [4]): > 50 µM (not active) | EC50 [5]: 36.8 µM (active) | IC50 (Estrogen receptor): 6.84 µM (active)

O=C(c1ccco1)[C@@H]1[C@@H]2C(=O)N(c3ccccc3)C(=O)[C@@H]2C2c3ccccc3C=CN21 (some centres undefined)
IC50 [6]: 23.4 µM (active) | EC50 [7]: 34.9 µM (active) | EC50 [8]: 39.1 µM (active)

O=C(O)C1CCCCC1C(=O)NCCc1c[nH]c2ccccc12 (centres undefined)
IC50 (Protein skinhead-1): > 100 µM (inactive) | EC50 [9]: 34.8 µM (not active)

Cc1ccc(C=C2C(Cl)=C(Cl)C(Cl)=C2Cl)cc1
EC50 [10]: 5.03 µM (inconclusive) | EC50 (BJ [11]): 6.03 µM (inconclusive) | EC50 (Protein RecA): 5.66 µM (active) | AC50 [12]: > 380 µM (inactive) | EC50 (BJ [13]): 5.3 µM (inconclusive) | EC50 [14]: 0.78 µM (active)

Cc1cc(NC(=O)c2ccc3c(c2)C(=O)N(Cc2cccnc2)C3=O)no1
IC50 [15]: > 100 µM (not active) | IC50 [16]: 13.7 µM (not active)
